Laboratory results from PMC11999280, “Design and screening of novel endosomal escape compounds that enhance functional delivery of oligonucleotides in vitro” (Molecular Therapy. Nucleic Acids, 2025).

Assays:
Format in all cases: cell-based
[1] = system: mCherry-GAL9 expressing SHSY5Y cells; test: GAL9 recruitment assay, SHSY5Y; settings: calculated mean from >3 independent exp.
Procedure, shortened: (§1)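 Readout is GAL9 relocalization to damaged endosomes, scored as mCherry-GAL9 structures counted in confocal images after fixation in 4% paraformaldehyde and Hoechst 33342 nuclear staining. Compounds were applied in dose-response to stably expressing cells seeded one day earlier; three independent experiments with duplicate wells.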

[2] = system: mCherry-GAL9 expressing HeLa cells; test: GAL9 recruitment assay, HeLa; settings: calculated mean from >3 independent exp.
Procedure, shortened: as §1

[3] = system: mCherry-GAL9 expressing NCI-H358 cells; test: GAL9 recruitment assay, NCI-H358; settings: calculated mean from >3 independent exp.
Procedure, shortened: as §1

[4] = system: mCherry-GAL9 expressing 16HBE cells; test: GAL9 recruitment assay, 16HBE; settings: calculated mean from >3 independent exp.
Procedure, shortened: as §1

[5] = system: mCherry-GAL9 expressing HEK293 cells; test: GAL9 recruitment assay, HEK293; settings: calculated mean from >3 independent exp.
Procedure, shortened: as §1

[6] = system: HeLa_Luc705 cells (pLuc/705 splice-switching reporter); test: Functional 705-SSO delivery, luciferase splice-switching assay; settings: for Luciferase expression compared to reference: mean from >3 independent experiments
Procedure, shortened: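 Splice correction was measured as firefly luciferase luminescence in Triton X-100 lysates taken 24 h after enhancer treatment. Before treatment, the 10,000 cells/well had spent 24 h with 1–2 μM 705-SSO (2′-OMe, phosphorothioate). For comparison, 100–200 nM SSO was lipofected with LF2000.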

[7] = system: cell lines carrying an mCherry-GAL9-reporter; test: GAL9 puncta formation upon EEE dose escalation (images); settings: dose escalation 0.31 to 10 μM
Method: We further studied endosomal leakage by quantifying GAL9 recruitment upon EEE dose escalation, from 0.31 to 10 μM. For this purpose, we used cell lines carrying an mCherry-GAL9-reporter, where endosomal rupture could be quantified by measuring GAL9 clustering as a puncta event representative of endosomal remodeling.
Experiments assessing GAL9 localization as an indicator for endosomal remodeling were performed as previously described[15] using 8× stablemCherry-GAL9 expressing cell lines, SHSY5Y, U2OS, 16HBE, NCI-H358, HuH7, HepG2, HEK293, and HeLa. For mCherry-GAL9 recruitment, 3,000 or 6,500 cells/well (depending upon cell line) were seeded into 384-well CellCarrier Ultra plates 24 h prior to treatment (PerkinElmer, catalog no. 6007558). An Echo 655T acoustic dispenser (Labcyte) was used for EEE dose-response preparation by transferring to the cell plate. At assay endpoints, cells were PBS washed, 4% paraformaldehyde fixed at room temperature […] (VWR, catalog no. 9713.1000), and nuclei stained with PBS +1 μg/mL Hoechst 33342 (Thermo Fisher Scientific, catalog no. H21492).
Imaging was performed using a spinning-disk confocal microscope (Yokogawa: CV8000) with a ×20w objective (numerical aperture 1.0). Cells and mCherry-GAL9 structure identification and quantification were done using Columbus image-analysis software (PerkinElmer version 2.9.0). […]

[8] = system: mCherry-GAL9 expressing HuH7 cells; test: GAL9 recruitment assay, HuH7; settings: calculated mean from >3 independent exp.
Procedure, shortened: as §1

[9] = system: mCherry-GAL9 expressing HepG2 cells; test: GAL9 recruitment assay, HepG2; settings: calculated mean from >3 independent exp.
Procedure, shortened: as §1

[10] = system: mCherry-GAL9 expressing U2OS cells; test: GAL9 recruitment assay, U2OS; settings: calculated mean from >3 independent exp.
Procedure, shortened: as §1

COc1nn(C2CCN(C)CC2)cc1Nc1ncc(F)c(-n2ccc3c(C#N)cccc32)n1 [EEE8]
Gal9 response compared to reference ([1]; EEE 0.31 µM): 0.014
Gal9 response compared to reference ([1]; EEE 0.62 µM): 0.082
Gal9 response compared to reference ([1]; EEE 1.25 µM): 0.694
Gal9 response compared to reference ([1]; EEE 2.5 µM): 0.629
Gal9 response compared to reference ([1]; EEE 5 µM): 0.567
Gal9 response compared to reference ([1]; EEE 10 µM): 0.278
Gal9 response compared to reference ([2]; EEE 0.31 µM): 0.004
Gal9 response compared to reference ([2]; EEE 0.62 µM): 0.009
Gal9 response compared to reference ([2]; EEE 1.25 µM): 0.105
Gal9 response compared to reference ([2]; EEE 2.5 µM): 0.319
Gal9 response compared to reference ([2]; EEE 5 µM): 0.459
Gal9 response compared to reference ([2]; EEE 10 µM): 0.198
Gal9 response compared to reference ([3]; EEE 0.31 µM): 0.017
Gal9 response compared to reference ([3]; EEE 0.62 µM): 0.032
Gal9 response compared to reference ([3]; EEE 1.25 µM): 0.148
Gal9 response compared to reference ([3]; EEE 2.5 µM): 0.553
Gal9 response compared to reference ([3]; EEE 5 µM): 0.623
Gal9 response compared to reference ([3]; EEE 10 µM): 0.457
Gal9 response compared to reference ([4]; EEE 0.31 µM): 0.011
Gal9 response compared to reference ([4]; EEE 0.62 µM): 0.035
Gal9 response compared to reference ([4]; EEE 1.25 µM): 0.180
Gal9 response compared to reference ([4]; EEE 2.5 µM): 0.503
Gal9 response compared to reference ([4]; EEE 5 µM): 0.638
Gal9 response compared to reference ([4]; EEE 10 µM): 0.492
Gal9 response compared to reference ([5]; EEE 0.31 µM): 0.027
Gal9 response compared to reference ([5]; EEE 0.62 µM): 0.052
Gal9 response compared to reference ([5]; EEE 1.25 µM): 0.309
Gal9 response compared to reference ([5]; EEE 2.5 µM): 0.657
Gal9 response compared to reference ([5]; EEE 5 µM): 0.605
Gal9 response compared to reference ([5]; EEE 10 µM): 0.329
Luciferase expression compared to reference ([6]; HeLa-Luc705 + 1 µM SSO, EEE 0.5 µM): 0.717
Luciferase expression compared to reference ([6]; HeLa-Luc705 + 1 µM SSO, EEE 2 µM): 2.253
Luciferase expression compared to reference ([6]; HeLa-Luc705 + 1 µM SSO, EEE 4 µM): 11.227
Luciferase expression compared to reference ([6]; HeLa-Luc705 + 1 µM SSO, EEE 5 µM): 31.147
Luciferase expression compared to reference ([6]; HeLa-Luc705 + 2 µM SSO, EEE 5 µM): 52.876
EEE dose required to show splice-switching above 10-fold normalized to SSO only ([6]; dose-response, 1 μM SSO): 4.5 μM
EEE concentration with clear GAL9 puncta formation [7]: ≥ 1.25 µM
Gal9 response compared to reference ([8]; EEE 0.31 µM): 0.010
Gal9 response compared to reference ([8]; EEE 0.62 µM): 0.016
Gal9 response compared to reference ([8]; EEE 1.25 µM): 0.078
Gal9 response compared to reference ([8]; EEE 2.5 µM): 0.313
Gal9 response compared to reference ([8]; EEE 5 µM): 0.228
Gal9 response compared to reference ([8]; EEE 10 µM): 0.160
Gal9 response compared to reference ([9]; EEE 0.31 µM): 0.007
Gal9 response compared to reference ([9]; EEE 0.62 µM): 0.008
Gal9 response compared to reference ([9]; EEE 1.25 µM): 0.011
Gal9 response compared to reference ([9]; EEE 2.5 µM): 0.075
Gal9 response compared to reference ([9]; EEE 5 µM): 0.511
Gal9 response compared to reference ([9]; EEE 10 µM): 0.529
Gal9 response compared to reference ([10]; EEE 0.31 µM): 0.012
Gal9 response compared to reference ([10]; EEE 0.62 µM): 0.013
Gal9 response compared to reference ([10]; EEE 1.25 µM): 0.029
Gal9 response compared to reference ([10]; EEE 2.5 µM): 0.234
Gal9 response compared to reference ([10]; EEE 5 µM): 0.490
Gal9 response compared to reference ([10]; EEE 10 µM): 0.563
